According to ChEMBL document CHEMBL1156023, “Grassystatins A-C from marine cyanobacteria, potent cathepsin E inhibitors that reduce antigen presentation” (J Med Chem, 2009):
Square brackets hold non-standard residues; d marks the D form. Peptide text beside a SMILES is read from it. * marks the point of attachment. Sta = CC(C)C[C@H](N)[C@@H](O)CC(=O)O; NMe2Val = CC(C)[C@@H](C(=O)*)N(C)C; dNMeF = CN[C@H](Cc1ccccc1)C(=O)O; dHiv = CC(C)[C@@H](O)C(=O)O; Hiv = CC(C)[C@H](O)C(=O)O

Assays:
Neutrophil collagenase [1] = target: T1, Neutrophil collagenase (Homo sapiens, UniProt P22894); test: Inhibition of MMP8 assessed as residual activity at 10 uM after 10 to 15 mins by fluorescence assay relative to control
[2] = target: T2, Vitamin K-dependent protein C (Homo sapiens, UniProt P04070); test: Inhibition of activated protein C after 10 to 15 mins by fluorescence assay in presence of 50% […]
T2 sequence (P04070 43-197 limits assumed): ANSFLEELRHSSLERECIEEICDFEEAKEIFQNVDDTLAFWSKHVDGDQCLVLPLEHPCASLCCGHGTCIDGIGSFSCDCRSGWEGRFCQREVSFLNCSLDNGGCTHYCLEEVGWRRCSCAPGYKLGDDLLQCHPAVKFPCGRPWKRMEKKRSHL
T2 sequence (P04070 212-461 limits assumed): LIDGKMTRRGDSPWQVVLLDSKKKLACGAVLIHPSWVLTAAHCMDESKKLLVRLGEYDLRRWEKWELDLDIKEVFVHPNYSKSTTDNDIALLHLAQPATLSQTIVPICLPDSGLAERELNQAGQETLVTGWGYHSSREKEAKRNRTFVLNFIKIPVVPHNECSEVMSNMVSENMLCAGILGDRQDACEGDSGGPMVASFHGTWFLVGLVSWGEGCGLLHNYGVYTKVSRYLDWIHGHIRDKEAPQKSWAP

[3] = target: Kallikrein-5 (Homo sapiens) (UniProt Q9Y337); test: Inhibition of kallikrein 5 assessed as residual activity at 10 uM after 10 to 15 mins by fluorescence assay relative to control
[4] = target: Chymotrypsin-like elastase family member 1 (Sus scrofa) (UniProt P00772); test: Inhibition of porcine pancreatic elastase assessed as residual activity at 10 uM after 10 to 15 mins by fluorescence assay relative to control
Stromelysin-3 = Stromelysin-3 (Homo sapiens, UniProt P24347); test: Inhibition of MMP11 catalytic domain after 10 to 15 mins by fluorescence assay
Caspase-5 = Caspase-5 (Homo sapiens, UniProt P51878); test: Inhibition of caspase 5 after 10 to 15 mins by fluorescence assay
Caspase-14 = Caspase-14 (Homo sapiens, UniProt P31944); test: Inhibition of caspase 14 after 10 to 15 mins by fluorescence assay
Chain of Caspase-14 (P31944 6-146 limits assumed): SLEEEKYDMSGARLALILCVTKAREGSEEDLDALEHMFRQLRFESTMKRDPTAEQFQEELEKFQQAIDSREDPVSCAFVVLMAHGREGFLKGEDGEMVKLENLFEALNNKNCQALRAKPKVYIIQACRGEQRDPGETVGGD
Chain of Caspase-14 (P31944 153-242 limits assumed): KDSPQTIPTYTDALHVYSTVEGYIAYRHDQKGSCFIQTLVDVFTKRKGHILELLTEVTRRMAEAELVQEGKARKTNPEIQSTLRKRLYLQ

Neutrophil collagenase [5] = target: T1, Neutrophil collagenase; test: Inhibition of MMP8 catalytic domain after 10 to 15 mins by fluorescence assay
[6] = target: Dipeptidyl peptidase 1 (Homo sapiens) (UniProt P53634); test: Inhibition of cathepsin C assessed as residual activity at 10 uM after 10 to 15 mins by fluorescence assay relative to control
[7] = target: Plasma kallikrein (Homo sapiens) (UniProt P03952); test: Inhibition of plasma kallikrein assessed as residual activity at 10 uM after 10 to 15 mins by fluorescence assay relative to control; format: cell-free
Chain of Plasma kallikrein (Homo sapiens) (P03952 20-390 limits assumed): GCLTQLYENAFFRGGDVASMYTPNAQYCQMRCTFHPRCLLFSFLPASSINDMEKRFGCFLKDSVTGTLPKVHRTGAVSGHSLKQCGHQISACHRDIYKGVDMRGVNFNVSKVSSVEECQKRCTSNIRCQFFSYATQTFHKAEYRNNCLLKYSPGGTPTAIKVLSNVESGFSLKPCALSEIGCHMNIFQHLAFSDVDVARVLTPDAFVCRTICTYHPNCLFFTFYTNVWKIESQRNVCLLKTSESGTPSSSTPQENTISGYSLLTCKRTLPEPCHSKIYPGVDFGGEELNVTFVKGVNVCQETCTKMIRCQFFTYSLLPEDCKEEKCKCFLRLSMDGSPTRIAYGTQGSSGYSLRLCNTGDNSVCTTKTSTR
Chain of Plasma kallikrein (Homo sapiens) (P03952 391-638 limits assumed): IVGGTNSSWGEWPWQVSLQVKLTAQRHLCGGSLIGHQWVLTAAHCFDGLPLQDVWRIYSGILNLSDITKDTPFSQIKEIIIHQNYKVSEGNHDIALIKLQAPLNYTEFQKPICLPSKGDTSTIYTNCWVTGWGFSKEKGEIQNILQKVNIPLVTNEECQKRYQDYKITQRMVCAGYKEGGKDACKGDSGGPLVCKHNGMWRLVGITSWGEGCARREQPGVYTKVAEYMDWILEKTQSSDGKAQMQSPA

Caspase-5 (Homo sapiens) = Caspase-5 (Homo sapiens) (UniProt P51878); test: Inhibition of caspase 5 assessed as residual activity at 10 uM after 10 to 15 mins by fluorescence assay relative to control
[8] = target: Caspase-10 (Homo sapiens) (UniProt Q92851); test: Inhibition of caspase 10 assessed as residual activity at 10 uM after 10 to 15 mins by fluorescence assay relative to control
[9] = target: Tryptase beta-1 (Homo sapiens) (UniProt Q15661); test: Inhibition of tryptase beta2 assessed as residual activity at 10 uM after 10 to 15 mins by fluorescence assay relative to control
Chymase (Homo sapiens) = Chymase (Homo sapiens) (UniProt P23946); test: Inhibition of chymase assessed as residual activity at 10 uM after 10 to 15 mins by fluorescence assay relative to control
Chain of Chymase (Homo sapiens) (P23946 whole entry): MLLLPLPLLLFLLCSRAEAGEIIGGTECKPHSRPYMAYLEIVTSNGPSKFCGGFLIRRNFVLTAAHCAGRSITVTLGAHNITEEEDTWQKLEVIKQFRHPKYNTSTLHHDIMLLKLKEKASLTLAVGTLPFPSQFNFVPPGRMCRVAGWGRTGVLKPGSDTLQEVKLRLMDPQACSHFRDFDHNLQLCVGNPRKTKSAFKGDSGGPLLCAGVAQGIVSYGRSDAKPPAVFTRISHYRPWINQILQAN

Caspase-4 = Caspase-4 (Homo sapiens, UniProt P49662); test: Inhibition of caspase 4 after 10 to 15 mins by fluorescence assay
[10] = target: Disintegrin and metalloproteinase domain-containing protein 10 (Homo sapiens) (UniProt O14672); test: Inhibition of ADAM10 assessed as residual activity at 10 uM after 10 to 15 mins by fluorescence assay relative to control
Chain of Disintegrin and metalloproteinase domain-containing protein 10 (Homo sapiens) (O14672 whole entry, the tested form may be a part): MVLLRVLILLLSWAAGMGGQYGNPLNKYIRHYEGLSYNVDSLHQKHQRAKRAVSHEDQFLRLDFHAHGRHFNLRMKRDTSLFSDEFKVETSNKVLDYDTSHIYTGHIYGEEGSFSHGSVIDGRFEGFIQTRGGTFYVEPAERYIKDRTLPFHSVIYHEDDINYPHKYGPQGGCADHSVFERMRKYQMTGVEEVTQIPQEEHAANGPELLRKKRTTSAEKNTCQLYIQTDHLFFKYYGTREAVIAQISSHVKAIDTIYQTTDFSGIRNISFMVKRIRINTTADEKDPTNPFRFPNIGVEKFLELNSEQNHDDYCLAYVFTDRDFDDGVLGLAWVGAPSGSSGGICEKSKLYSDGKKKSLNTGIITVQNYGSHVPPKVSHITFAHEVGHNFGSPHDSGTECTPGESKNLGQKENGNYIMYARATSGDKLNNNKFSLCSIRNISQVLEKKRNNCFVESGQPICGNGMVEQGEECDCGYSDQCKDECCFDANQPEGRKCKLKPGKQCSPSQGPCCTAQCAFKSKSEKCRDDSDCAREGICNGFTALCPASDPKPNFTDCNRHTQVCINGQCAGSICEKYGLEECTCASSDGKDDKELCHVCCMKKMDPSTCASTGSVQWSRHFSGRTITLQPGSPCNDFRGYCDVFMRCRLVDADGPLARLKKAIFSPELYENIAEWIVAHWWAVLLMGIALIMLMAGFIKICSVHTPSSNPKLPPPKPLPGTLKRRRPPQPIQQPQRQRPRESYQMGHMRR

[11] = target: Cathepsin Z (Homo sapiens) (UniProt Q9UBR2); test: Inhibition of cathepsin Z assessed as residual activity at 10 uM after 10 to 15 mins by fluorescence assay relative to control
Chain of Cathepsin Z (Homo sapiens) (Q9UBR2 whole entry): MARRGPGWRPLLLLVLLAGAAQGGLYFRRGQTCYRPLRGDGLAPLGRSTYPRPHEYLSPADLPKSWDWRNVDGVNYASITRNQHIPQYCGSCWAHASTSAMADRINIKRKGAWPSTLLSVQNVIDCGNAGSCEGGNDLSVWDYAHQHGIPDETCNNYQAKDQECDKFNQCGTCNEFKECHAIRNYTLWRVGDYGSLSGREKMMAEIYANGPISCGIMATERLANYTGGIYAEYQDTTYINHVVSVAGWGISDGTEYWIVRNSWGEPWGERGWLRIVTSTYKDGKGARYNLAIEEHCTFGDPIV

[12] = target: Serine protease 1 (Bos taurus) (UniProt P00760); test: Inhibition of bovine pancreatic trypsin assessed as residual activity at 10 uM after 10 to 15 mins by fluorescence assay relative to control
Caspase-8 (Homo sapiens) = Caspase-8 (Homo sapiens) (UniProt Q14790); test: Inhibition of caspase 8 assessed as residual activity at 10 uM after 10 to 15 mins by fluorescence assay relative to control
Chain of Caspase-8 (Homo sapiens) (Q14790 217-374 limits assumed): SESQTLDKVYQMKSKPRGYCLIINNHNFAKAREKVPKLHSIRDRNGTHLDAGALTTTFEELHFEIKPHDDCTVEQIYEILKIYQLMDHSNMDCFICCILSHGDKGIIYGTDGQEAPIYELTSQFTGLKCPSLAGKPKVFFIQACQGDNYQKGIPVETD
Chain of Caspase-8 (Homo sapiens) (Q14790 385-479 limits assumed): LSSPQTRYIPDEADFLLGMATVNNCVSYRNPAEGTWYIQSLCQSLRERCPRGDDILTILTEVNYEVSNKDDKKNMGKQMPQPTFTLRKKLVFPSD

Caspase-2 (Homo sapiens) = Caspase-2 (Homo sapiens) (UniProt P42575); test: Inhibition of caspase 2 assessed as residual activity at 10 uM after 10 to 15 mins by fluorescence assay relative to control
Chain of Caspase-2 (Homo sapiens) (P42575 170-325 limits assumed): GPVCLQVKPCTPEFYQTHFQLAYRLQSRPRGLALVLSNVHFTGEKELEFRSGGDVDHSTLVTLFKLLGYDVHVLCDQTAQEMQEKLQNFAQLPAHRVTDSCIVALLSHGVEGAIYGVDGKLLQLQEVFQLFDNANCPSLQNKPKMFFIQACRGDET
Chain of Caspase-2 (Homo sapiens) (P42575 334-452 limits assumed): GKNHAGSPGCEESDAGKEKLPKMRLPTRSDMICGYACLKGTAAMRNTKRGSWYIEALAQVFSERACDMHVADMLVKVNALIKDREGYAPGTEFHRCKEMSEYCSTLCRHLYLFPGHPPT

Stromelysin-2 = Stromelysin-2 (Homo sapiens, UniProt P09238); test: Inhibition of MMP10 assessed as residual activity at 10 uM after 10 to 15 mins by fluorescence assay relative to control
Chain of Stromelysin-2 (P09238 99-476 limits assumed): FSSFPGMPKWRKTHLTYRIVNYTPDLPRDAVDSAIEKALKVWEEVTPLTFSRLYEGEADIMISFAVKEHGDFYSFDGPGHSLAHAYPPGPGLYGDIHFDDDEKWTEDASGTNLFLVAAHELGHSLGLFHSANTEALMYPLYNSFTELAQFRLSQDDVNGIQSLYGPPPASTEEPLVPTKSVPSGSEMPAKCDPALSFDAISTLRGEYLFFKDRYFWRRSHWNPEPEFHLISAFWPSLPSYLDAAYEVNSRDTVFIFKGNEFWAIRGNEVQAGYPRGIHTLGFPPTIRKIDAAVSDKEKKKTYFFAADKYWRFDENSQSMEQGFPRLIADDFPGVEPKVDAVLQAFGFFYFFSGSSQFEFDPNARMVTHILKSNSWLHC

Caspase-1 (Homo sapiens) = Caspase-1 (Homo sapiens) (UniProt P29466); test: Inhibition of caspase 1 assessed as residual activity at 10 uM after 10 to 15 mins by fluorescence assay relative to control
Renin (Homo sapiens) = Renin (Homo sapiens) (UniProt P00797); test: Inhibition of human renin assessed as residual activity at 10 uM after 10 to 15 mins by fluorescence assay relative to control
Collagenase 3 [13] = target: T3, Collagenase 3 (Homo sapiens, UniProt P45452); test: Inhibition of MMP13 assessed as residual activity at 10 uM after 10 to 15 mins by fluorescence assay relative to control
[14] = target: Kallikrein-8 (Homo sapiens) (UniProt O60259); test: Inhibition of kallikrein 8 assessed as residual activity at 10 uM after 10 to 15 mins by fluorescence assay relative to control
[15] = target: Matrix metalloproteinase-14 (Homo sapiens, UniProt P50281); test: Inhibition of MMP14 catalytic domain after 10 to 15 mins by fluorescence assay
[16] = target: T2, Vitamin K-dependent protein C; test: Inhibition of activated protein C assessed as residual activity at 10 uM after 10 to 15 mins by fluorescence assay in presence of 50% […] relative to control
[17] = target: Dipeptidyl peptidase 4 (Homo sapiens) (UniProt P27487); test: Inhibition of DPP4 assessed as residual activity at 10 uM after 10 to 15 mins by fluorescence assay relative to control
[18] = target: Macrophage metalloelastase (Homo sapiens, UniProt P39900); test: Inhibition of MMP12 catalytic domain after 10 to 15 mins by fluorescence assay
[19] = target: Coagulation factor X (Homo sapiens) (UniProt P00742); test: Inhibition of factor 10a assessed as residual activity at 10 uM after 10 to 15 mins by fluorescence assay relative to control
Collagenase 3 [20] = target: T3, Collagenase 3; test: Inhibition of MMP13 catalytic domain after 10 to 15 mins by fluorescence assay
[21] = target: Plasminogen (Homo sapiens) (UniProt P00747); test: Inhibition of human plasmin assessed as residual activity at 10 uM after 10 to 15 mins by fluorescence assay relative to control
Caspase-2 = Caspase-2 (Homo sapiens, UniProt P42575); test: Inhibition of caspase 2 after 10 to 15 mins by fluorescence assay
Chain of Caspase-2 (P42575 170-325 limits assumed): as the sequence (P42575 170-325 limits assumed) above
Chain of Caspase-2 (P42575 334-452 limits assumed): as the sequence (P42575 334-452 limits assumed) above

Caspase-3 (Homo sapiens) = Caspase-3 (Homo sapiens) (UniProt P42574); test: Inhibition of caspase 3 assessed as residual activity at 10 uM after 10 to 15 mins by fluorescence assay relative to control
Chain of Caspase-3 (Homo sapiens) (P42574 29-175 limits assumed): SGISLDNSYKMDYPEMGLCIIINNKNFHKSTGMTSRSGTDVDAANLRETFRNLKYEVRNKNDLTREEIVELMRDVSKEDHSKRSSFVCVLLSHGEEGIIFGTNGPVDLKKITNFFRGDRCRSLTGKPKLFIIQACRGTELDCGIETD
Chain of Caspase-3 (Homo sapiens) (P42574 176-277 limits assumed): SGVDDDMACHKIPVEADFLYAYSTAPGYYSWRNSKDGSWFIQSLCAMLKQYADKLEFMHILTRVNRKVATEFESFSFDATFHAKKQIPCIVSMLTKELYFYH

[22] = target: T4, Matrix metalloproteinase-9 (Homo sapiens, UniProt P14780); test: Inhibition of MMP9 catalytic domain after 10 to 15 mins by fluorescence assay
T4 sequence (P14780 whole entry, the tested form may be a part): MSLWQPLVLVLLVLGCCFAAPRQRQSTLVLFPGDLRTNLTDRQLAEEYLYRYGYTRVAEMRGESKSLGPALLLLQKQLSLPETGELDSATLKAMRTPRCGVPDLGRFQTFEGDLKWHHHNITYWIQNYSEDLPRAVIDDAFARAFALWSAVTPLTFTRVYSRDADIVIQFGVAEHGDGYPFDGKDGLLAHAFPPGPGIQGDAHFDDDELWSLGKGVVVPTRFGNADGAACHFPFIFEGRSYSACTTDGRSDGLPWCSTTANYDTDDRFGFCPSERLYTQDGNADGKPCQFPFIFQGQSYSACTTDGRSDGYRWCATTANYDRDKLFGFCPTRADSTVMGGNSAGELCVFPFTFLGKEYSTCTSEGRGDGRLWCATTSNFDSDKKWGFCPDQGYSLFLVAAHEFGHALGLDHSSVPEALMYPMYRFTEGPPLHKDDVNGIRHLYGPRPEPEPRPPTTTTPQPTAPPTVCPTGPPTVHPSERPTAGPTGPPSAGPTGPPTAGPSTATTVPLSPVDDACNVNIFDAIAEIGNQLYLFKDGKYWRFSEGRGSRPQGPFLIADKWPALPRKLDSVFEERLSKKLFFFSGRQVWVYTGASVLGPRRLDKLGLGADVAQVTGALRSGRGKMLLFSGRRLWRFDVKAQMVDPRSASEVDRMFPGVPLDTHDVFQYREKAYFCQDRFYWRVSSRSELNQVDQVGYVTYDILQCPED

Caspase-4 (Homo sapiens) = Caspase-4 (Homo sapiens) (UniProt P49662); test: Inhibition of caspase 4 assessed as residual activity at 10 uM after 10 to 15 mins by fluorescence assay relative to control
[23] = target: T4, Matrix metalloproteinase-9; test: Inhibition of MMP9 assessed as residual activity at 10 uM after 10 to 15 mins by fluorescence assay relative to control

COC(=O)[C@@H]1CCCN1C(=O)[C@@H](Cc1ccccc1)N(C)C(=O)[C@H](C)NC(=O)[C@@H](NC(=O)C[C@H](O)[C@H](CC(C)C)NC(=O)[C@H](CC(N)=O)NC(=O)[C@H](CC(C)C)NC(=O)[C@H](OC(=O)[C@@H](OC(=O)[C@H](C(C)C)N(C)C)C(C)C)C(C)C)[C@@H](C)O [GRASSYSTATIN A] (NMe2Val-[Hiv][dHiv]LN[Sta]TA[dNMeF]P-OMe)
Activity (Neutrophil collagenase [1]): 70%
IC50 [2]: 50 µM
Activity [3]: 84%
Activity [4]: 66%
IC50 (Stromelysin-3): 5 µM
IC50 (Caspase-5): 5 µM
IC50 (Caspase-14): 5 µM
IC50 (Neutrophil collagenase [5]): 5 µM
Activity [6]: 110%
Activity [7]: 78%
Activity (Caspase-5 (Homo sapiens)): 58%
Activity [8]: 102%
Activity [9]: 74%
Activity (Chymase (Homo sapiens)): 90%
IC50 (Caspase-4): 5 µM
Activity [10]: 0%
Activity [11]: 94%
Activity [12]: 77%
Activity (Caspase-8 (Homo sapiens)): 82%
Activity (Caspase-2 (Homo sapiens)): 69%
Activity (Stromelysin-2): 76%
Activity (Caspase-1 (Homo sapiens)): 90%
Activity (Renin (Homo sapiens)): 96%
Activity (Collagenase 3 [13]): 75%
Activity [14]: 101%
IC50 [15]: 5 µM
Activity [16]: 130%
Activity [17]: 71%
IC50 [18]: 5 µM
Activity [19]: 84%
IC50 (Collagenase 3 [20]): 5 µM
Activity [21]: 86%
IC50 (Caspase-2): 5 µM
Activity (Caspase-3 (Homo sapiens)): 63%
IC50 [22]: 5 µM
Activity (Caspase-4 (Homo sapiens)): 64%
Activity [23]: 81%
